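How tested: cells in 96-well plates exposed to compound for 48 hours at five concentrations. GI50 marks 50% less growth. The concentration for full growth arrest is given as TGI.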
How the values were obtained:
Assay in all cases: NCI anticancer screen, dose series, 48 h
SW-620 colon = test system: SW-620 colon
HOP-62 NSCLC = test system: HOP-62 NSCLC
HOP-92 NSCLC = test system: HOP-92 NSCLC
M14 melanoma = test system: M14 melanoma
UACC-257 melanoma = test system: UACC-257 melanoma
SK-MEL-5 melanoma = test system: SK-MEL-5 melanoma
786-0 renal = test system: 786-0 renal
CAKI-1 renal = test system: CAKI-1 renal
OVCAR-4 ovarian = test system: OVCAR-4 ovarian
OVCAR-5 ovarian = test system: OVCAR-5 ovarian

SMILES | GI50 (SW-620 colon) | TGI (SW-620 colon) | GI50 (HOP-62 NSCLC) | TGI (HOP-62 NSCLC) | GI50 (HOP-92 NSCLC) | TGI (HOP-92 NSCLC) | GI50 (M14 melanoma) | TGI (M14 melanoma) | GI50 (UACC-257 melanoma) | TGI (UACC-257 melanoma) | GI50 (SK-MEL-5 melanoma) | TGI (SK-MEL-5 melanoma) | GI50 (786-0 renal) | TGI (786-0 renal) | GI50 (CAKI-1 renal) | TGI (CAKI-1 renal) | GI50 (OVCAR-4 ovarian) | TGI (OVCAR-4 ovarian) | TGI (OVCAR-5 ovarian) | GI50 (OVCAR-5 ovarian)
CCC[CH2][Sn]1([CH2]CCC)[O]C(=O)c2cccnc2[S]1 | 1.88 µM | 4.31 µM | 28.9 µM | 43.7 µM | 3.37 µM | 12.1 µM | 3.22 µM | 10.1 µM | 2.64 µM | 6.97 µM | 4.96 µM | 17 µM | 2.55 µM | 6.8 µM | 1.76 µM | 8.05 µM | 10.1 µM | 21.9 µM |  | 
CC[C@H]1CNC(=O)CC1CC(=O)OC (stereo not given in full) |  | > 100 µM |  | > 100 µM |  |  |  | > 100 µM |  | > 100 µM |  | > 100 µM |  | > 100 µM |  | > 100 µM |  | > 100 µM | > 100 µM | 
CC1(C)N=C(N)N=C(N)N1c1cccc(CC(=O)Nc2ccccc2)c1 | 4.56 µM | > 100 µM | 53.4 µM | > 100 µM |  |  | 40.2 µM | > 100 µM | > 100 µM | > 100 µM | 4.44 µM | > 100 µM | 78.5 µM | > 100 µM | > 100 µM | > 100 µM | 81.8 µM | > 100 µM | > 100 µM | > 100 µM
CC1SC(c2ccc(OCc3ccccc3)cc2)N(NC(=O)C(O)(c2ccccc2)c2ccccc2)C1=O (stereo not given) | 3.61 µM | 12.7 µM | 2.01 µM | 8.1 µM | 1.14 µM | 4.74 µM |  |  | 7.39 µM | 21.3 µM | 8.26 µM | 20.7 µM | 1.98 µM | 4.64 µM | 2.49 µM | 8.6 µM | 5.13 µM | 36 µM | 16.1 µM | 3.81 µM
N#CC1(C2CC(=O)N(c3ccccc3)C2=O)CCCCC1=O (stereo not given) |  | > 100 µM |  |  |  |  |  | > 100 µM |  |  |  | > 100 µM |  | > 100 µM |  |  |  | > 100 µM | > 100 µM | 
C/C(=N\NC(N)=S)c1ccc(Oc2ccccc2)cc1 |  | 53.9 µM |  | 46.6 µM |  | 9.48 µM |  | 25.8 µM |  |  |  | 18.8 µM |  | 14.5 µM |  |  |  | 16.8 µM |  | 
C/C=C/C(C/C=C(\C)CO[Si](C)(C)C(C)(C)C)O[Si](C)(C)C(C)(C)C (stereo not given) |  | > 100 µM |  | > 100 µM |  |  |  | > 100 µM |  | > 100 µM |  | > 100 µM |  | > 100 µM |  | > 100 µM |  | > 100 µM | > 100 µM | 
CCc1ccc2cc3c(ccc4ccccc43)c3c2c1CC3 | > 100 µM | > 100 µM | > 100 µM | > 100 µM | > 100 µM | > 100 µM | > 100 µM | > 100 µM |  |  | > 100 µM | > 100 µM | > 100 µM | > 100 µM | > 100 µM | > 100 µM | > 100 µM | > 100 µM | > 100 µM | > 100 µM
C=CC(C)(C)[C@@]12CC3C(=O)N[C@@H](Cc4ccccc4)C(=O)N3[C@@H]1N(C(C)=O)c1ccccc12 (stereo not given in full) |  | > 100 µM |  | > 100 µM |  | 91.2 µM |  | > 100 µM |  | > 100 µM |  | > 100 µM |  | > 100 µM |  |  |  | 97.5 µM | > 100 µM | 
O=C(CC1(O)C(=O)Nc2ccc(Br)cc21)c1cccc([N+](=O)[O-])c1 (stereo not given) |  | > 100 µM |  | > 100 µM |  | 74.6 µM |  | > 100 µM |  | 78.6 µM |  |  |  | > 100 µM |  | > 100 µM |  | 67.1 µM | > 100 µM | 
COc1cnc2c(c1)C(=O)c1c-2n(CCCN2CCNCC2)c(=O)c2cc(F)ccc12 | 0.11 µM | 1.46 µM | 0.0665 µM | 0.352 µM | 0.139 µM | 2.95 µM | 0.366 µM | 1.88 µM | 1.29 µM | 2.69 µM | 0.217 µM | 1.65 µM | 0.127 µM | 0.511 µM |  |  | 0.892 µM | 2.49 µM | 1.51 µM | 0.334 µM
CCCCP1(=O)C=CC(Cl)=C(C)C1 (stereo not given) |  | > 100 µM |  | > 100 µM |  | > 100 µM |  | > 100 µM |  | > 100 µM |  | > 100 µM |  | > 100 µM |  |  |  | > 100 µM | > 100 µM | 
C=CN(C(=O)N1CCN(c2cc3c(cc2F)c(=O)c(C(=O)O)cn3C2CC2)CC1)c1nc(-c2ccc(C)cc2)cs1 | 4.5 µM | > 100 µM | 3.49 µM | > 100 µM | 1.13 µM | 4.39 µM |  |  | 2.81 µM | 7.44 µM |  |  | 0.333 µM | 10.5 µM |  |  | 3.56 µM | > 100 µM | > 100 µM | 4.14 µM
N#Cc1cccc(C2SCc3nc4ccccc4n32)c1 (stereo not given) |  | > 100 µM |  | > 100 µM |  | > 100 µM |  |  |  | > 100 µM |  | 65.2 µM |  | > 100 µM |  | > 100 µM |  | > 100 µM | > 100 µM | 
O=C(Nc1cc(Cl)ccc1Cl)c1cc2ccccc2oc1=O |  | > 100 µM |  | > 100 µM |  |  |  | > 100 µM |  | > 100 µM |  | > 100 µM |  | > 100 µM |  |  |  |  |  | 
Fc1cnccc1-c1nc2ccc3[nH]ncc3c2c2c1CCCC2 |  |  | 0.909 µM | 94.2 µM | 1.62 µM | 9.97 µM | 1.58 µM | > 100 µM | 5.48 µM | > 100 µM | 2.35 µM | > 100 µM | 1.67 µM | 5.23 µM |  |  | 3.5 µM | > 100 µM | > 100 µM | 3.16 µM
O=C1C(=C2C(=O)c3ccccc3[N+]2=O)N([O-])c2ccccc21 |  | 47.5 µM |  |  |  |  |  | 43.7 µM |  |  |  | 32.5 µM |  | 46.1 µM |  |  |  | 31.7 µM | > 100 µM | 
CC1CC(=O)C(CC(=O)O)[C@H]1C(C(=O)C(=O)Nc1cc(Cl)ccc1Cl)[N+](=O)[O-] (stereo not given in full) |  | > 100 µM |  | > 100 µM |  | > 100 µM |  |  |  |  |  | > 100 µM |  | > 100 µM |  | > 100 µM |  |  | > 100 µM | 
CCCCc1c2c([n+]([O-])c3c1CCCC3)CCCC2 |  | > 100 µM |  | > 100 µM |  |  |  |  |  | > 100 µM |  | > 100 µM |  | > 100 µM |  |  |  |  |  | 
Cc1cc(Br)ccc1N=NC1C(=O)ON=C1c1ccccc1 (stereo not given) |  | > 100 µM |  | > 100 µM |  | > 100 µM |  | > 100 µM |  | > 100 µM |  | > 100 µM |  | > 100 µM |  |  |  | > 100 µM | > 100 µM | 

Reference: PubChem BioAssay (NCI)
